“Also recorded” adds a separate entry of the source. One block for each compound: values may come before it.
Experiments:
MAT-Lu cells [1] = assay: Pseudopod morphometry (pseudopod length assay), MAT-Lu cells; assay type: cell-based, rat
Method: Pseudopod Morphometry. To study the effects of various agents on pseudopods on a short-term basis, we measured pseudopod lengths. Cells plated in 35-mm diameter dishes at low density (1×10^4 per dish) were incubated overnight, tie medium was changed, and the experiments were run four hours later. First, cultures were shifted to serum-free medium, which was replaced one hour later by serum-free medium with or without the various agents (thrombin, AA or HETEs). Care was taken to avoid heat and light inactivation of the eicosanoids. Culture dishes were placed on a Zeiss inverted microscope equipped with a heated stage and viewed with a 16×phase contrast objective lens. Randomly selected fields of the cultures, containing generally about 20 cells each, were recorded, digitized and stored in the computer at the onset of the experiment and at different times thereafter.
In some cases, individual cells were monitored over different periods of time immediately after introduction of the reagent, either by mixing it into the medium or by applying it locally to one end of the cell. Local application was done with a “puffer” system that expels microliter amounts of the desired solution from a micromanipulator-controlled micropipette tip. Cell morphology was recorded, and the captured images were analyzed with a Power Macintosh computer using NIH Image. Cell process length was measured from the center of the nucleus to the end of the process. Characterization of the frequencies of pseudopod lengths, at a fixed time for each of a sequence of concentrations of reagent, utilized a gamma regression model with an inverse quadratic linear predictor (McCullagh and Nelder, Generalized Linear Models 2d ed., pp. 291-292 (Chapman & Hall, 1989), separately fit to each concentration data set. Although no formal goodness-of-fit tests were carried out, in virtually every case there was good visual representation of the pattern of response (see FIG. 14). Most data, however, are shown as whisker-box plots, where the center point represents the 50%, the ends of the box the […] and 75%, and the “whiskers” the 5% and 95% quantiles (e.g., FIG. 11). Statistical comparisons of pseudopod lengths for different treatments were done by standard non-parametric techniques (Wilcoxon Rank Sum or Kruskal-Wallis Tests), as judged appropriate. Polynomial curve fittings were done by standard least-squares techniques. Statistical analyses and graphing were done with the use of SAS procedures: Reg, Phreg, Nparlway and Plot (SAS institute Inc., Cary, N.C.).

protein kinase C (PKC) = assay: MARCKS phosphorylation by PKC in isolated GCPs; assay type: biochemical, rat; details: isolated growth cones
Excerpt: FIG. 7A. Thrombin stimulates MARCKS phosphorylation in a 12-LOX-dependent manner. FIG. 7B. 12(S)-HETE stimulates MARCKS phosphorylation by PKC in isolated GCPs. […] Polypeptides were resolved by SDS-PAGE. MARCKS phosphorylation was quantified by phosphorimaging.

MAT-Lu cells [2] = assay: Boyden chamber motility assay, MAT-Lu cells; assay type: cell-based, rat; details: for Mat-Lu cells crossing filter in % of control +/− SEM: 4 hr, thrombin 200 nM, CDC 126 nM
Method: Boyden Chamber Motility Assays. Disposable transwells (Coming Costar, Cambridge, Mass.) of 6.5 mm diameter and 8 μm pore size were coated with 5 μg/ml laminin on both sides. The membranes were washed twice with Hank's balanced salt solution (HBSS) and then pre-incubated with growth medium containing 10% fetal bovine serum. Trypsinized cells (5×10^4) were plated into the upper well. After 1 hour the upper chamber was washed twice with HBSS, filled with serum-free medium and moved to a new lower chamber, also filled with serum-free medium, with or without thrombin and/or 0.75 nM insulin-like growth factor-1 (IGF-1). After incubation for 4 hrs, cells on the membrane were fixed and stained with a Diff-Quick kit (Baxter Scientific Products). Cells on the upper side were scraped off, the membranes were removed, mounted onto microscope slides and analyzed. Each filter was scanned twice at right angles under the light microscope with a 16×phase contrast objective lens. A continuous series of 20 frames for each filter was digitized using a high-resolution CCD camera (Kodak) and stored in a Power Macintosh computer. The two most peripheral pairs of frames from each scan were deleted so that 12 frames were analyzed for each filter. Cells that had crossed the membrane were counted and tabulated. The sum of the cells counted in the twelve frames was an individual data point.

[3] = tested on: growth cones in cultures of rat cerebral cortex; assay: Growth cone collapse assay in cortical neuron culture; assay type: cell-based
Method: Neuron Culture. Cerebral cortices were dissected from embryonic day 18 Sprague-Dawley rats, cut into explants of less than 1 mm^3 and cultured on either poly-D-lysine-coated coverglass (Assistent) or poly-D-lvsine-coated tissue culture plastic. After 24 hours in B27 neurobasal medium (NB) supplemented with 10% fetal bovine serum, cultures were switched to serum-free B27/NB. The cultures were incubated at 37° C. in 5% CO2 in air. Sprouting neurons were observed readily on day 1. On day 2 or 3, long neurites were present, and the cultures were used for collapse experiments.
Actin Staining. After experimentation, cultures were fixed by slow infusion of fixative (4% paraformaldehyde in 0.1 M phosphate buffer, pH 7.4) into the culture dishes over 10 min (Pfenninger and Maylié-Pfenninger, J. Cell Biol. 89:53-546 (1981)). Thereafter, the fixative was removed by rinsing three times with phosphate-buffered saline (PBS) containing 1 mM glycine. Cultures were then blocked with PBS/1% bovine serum albumin (BSA) and permeabilized by incubation in 0.02% Triton X-100 for 5 min. After three washes in PBS/BSA, cultures were incubated with Texas-Red-conjugated phalloidin for 30 min. Unbound phalloidin was washed away by two PBS rinses, after which the coverglasses were mounted in Slow-Fade Light on microscope slides. Images were recorded on 35 mm film using a Zeiss Axiophot fluorescence microscope equipped with epiillumination.
Growth Cone Collapse Assay. Prior to repellent factor treatment, some of the day 2-3 explant cultures were pre-incubated (at 37° C.) with inhibitor or vehicle control (dimethylsulfoxide or ethanol) for 30-60 min. Cultures were then challenged with a repellent factor or vehicle control for 1-30 min. In some experiments, live cultures were photographed with a Zeiss IM 35 inverted photo microscope equipped with a stage heater, while in others cultures were fixed (as above) after 7 minutes of repellent factor treatment. Growth cone collapse was assessed quantitatively in aldehyde-fixed cultures by grading the degree of collapse in a large number of randomly selected growth cones.

12-LOX [4] = details: Cho et al., 1991; cited from earlier work
12-Lox [5] = assay: Eicosanoid (HETE) generation in GCPs; assay type: biochemical, rat
Method: Eicosanoid Assays. Eicosanoid production in GCPs was measured by metabolic labelling from ^14C-AA or ^14C-AA-PC or by mass spectrometric detection. […] To measure Lox activity directly, without PLA2 involvement, ^3H-AA was the substrate of choice. Reactions were stopped by the addition of chloroform/methanol as for the phospholipase assays. Reaction products were extracted as described by Birkle et al., Neuromethods, vol. 7, pp.227-244 (Humana Press, N.J. 1988), spotted on pre-activated si gel 60 TLC plates, and the plates developed in the upper phase of ethyl acetate/isooctane/acetic acid/water (100:60:20:100). AA and HETEs were identified by co-migration with standards. Appropriate bands were counted by liquid scintillation spectrometry.
For mass-spectrometric (MS) identification of HETEs, two different strategies were pursued:
(1) the appropriate bands from non-labelled samples (PC substrate) were scraped from the TLC plate into ether/methanol (9:1) and stored under N2 at −20° C. Authentic 12(S)-HETE, run alongside in the same manner, was used as a standard. Just prior to analysis, samples were passed over an SPE filter to eliminate silica particles, dried under argon, resuspended in 500 μl ethanol, and injected (at 3 μl/min) into a Finnigan LCQ quadrupole ion trap mass spectrometer (Finnigan MAT, San Jose, Calif.) equipped with an electrospray ionization source. All spectra were acquired at a capillary temperature of 80° C., and ion guide voltages were tuned to maximize the abundance of the deprotonated ion species [M-H]^− in negative mode. In order to generate a spectrum, typically 100 single scans were averaged.
(2) For the other strategy (liquid chromatography/tandem MS, LC/MS^2), the reaction substrate consisted of 3.5 μM AA, with the addition of 3.5 μM deuterated AA (AA-D8) plus 1 μCi ^3H-AA to track reaction products by mass and radioactivity, respectively. Reactions were stopped with ice-cold ethanol, the mixtures kept overnight at −20° C. under N2, and the proteins spun out The supernatants were diluted with H2O and loaded onto 1-ml C18 Sep-Pak columns (Varian). After washing with H2O, eicosanoid was eluted with 2 ml methanol. These samples were resolved by reverse-phase HPLC, and the eluted fractions analyzed by tandem MS on-line (MacMillan and Murphy, 1995). Collision-induced decomposition of HETE isomers produced characteristic fragments that were identified at the second MS stage.

protein kinase C = details: Kobayashi et al. 1989; cited from earlier work

effect of inhibitor on thrombin-stimulated MARCKS and GAP43 phosphorylation (protein kinase C (PKC)): blocks phosphorylation
Compound: N#CC(=Cc1ccc(O)c(O)c1)C(=O)OCC=Cc1ccccc1 [CDC, cinnamyl-3,4-dihydroxy-α-cyanocinnamate]
effect of inhibitor pretreatment on AA-induced pseudopod shortening (MAT-Lu cells [1]; 15 min pretreatment, indomethacin 10 ηm, NDGA 25 μM, CDC 63 and 126 nM): blocked the AA effect completely; also recorded: reversed the AA effect; also recorded: reversed to control levels
effect of agent alone on pseudopod length (MAT-Lu cells [1]; typically 15 min exposure): seemed to cause pseudopod elongation
effect of LOX inhibitor on thrombin inhibition of migration (MAT-Lu cells [2]; CDC with thrombin, Table 1): reverses the effect of thrombin
Mat-Lu cells crossing filter in % of control +/− SEM (MAT-Lu cells [2]; Control column (no IGF-1)): 97.5 +/− 11.0 % of control
Mat-Lu cells crossing filter in % of control +/− SEM (MAT-Lu cells [2]; IGF-1 (0.75 nM)): 118 +/− 10.4 % of control
effect of CDC pretreatment on 12(S)-HETE-induced collapse ([3]; 12(S)-HETE 10^−7M): is not affected
effect of inhibitor pretreatment on thrombin- or TRAP-induced growth cone collapse ([3]; CDC 10 μM, indomethacin 25 μM, pretreatment 30-45 min): inhibits the thrombin effect on growth cones; also recorded: partially inhibits collapse; also recorded: almost complete inhibition of this effect
IC50 (12-LOX [4]): 63 nM
effect of inhibitor on thrombin-stimulated HETE production from AA (12-Lox [5]; 3H-AA substrate): strongly inhibited
effect on thrombin-stimulated HETE levels (12-Lox [5]; 14C-AA-PC substrate, CDC 0.156 μM): reduces thrombin-stimulated HETE levels to below control

Compound: calphostin C
effect of PKC inhibitor pretreatment on 12(S)-HETE-triggered pseudopod withdrawal (MAT-Lu cells [1]; 12(S)-HETE 10^−10M, calphostin 50 and 100 nM, 15 min pretreatment): blocks pseudopod retraction; also recorded: completely inhibited pseudopod withdrawal
effect of inhibitor on thrombin-stimulated MARCKS and GAP43 phosphorylation (protein kinase C (PKC)): blocks phosphorylation
IC50 (protein kinase C): 50 nM

Reference: patent US6566047B1, “Method for identifying neurite-growth promoting agents” (The Regents of the University of Colorado, priority 1998, dated 2003)
